In patent US9289490B2, “Combinations and uses thereof” (MORPHOSYS AG, priority 2010, dated 2016):
Where “and” joins values, the source holds several entries; their conditions need not be identical. Equal entries are not always repeated.

Tests used:
RAMOS cells = assay: RAMOS non-Hodgkin tumor SCID mouse survival model, MOR202 and lenalidomide; format: in vivo, SCID mice
Experimental: Sixty-eight female SCID mice were pre-treated with Cyclophosphamide (75 mg/kg, i.p., twice daily) for two days prior to RAMOS cell inoculation (Day −5 and −4). On the day of inoculation (Day −3), all mice were inoculated with 1×10^6 RAMOS cells each intravenously into the tail vein. Sixty-four of the mice were randomised by body weight into eight groups of eight.
The study continued for 98 days and the measured endpoint was survival.

NCI-H929 cells [1] = settings: 5 µM
NCI-H929 cells [2] = assay: ADCC with human PBMCs, flow cytometry (CalceinAM/PI)

**Q.** Which “Number of mice alive at study termination (day 98)” value (RAMOS cells; LEN 100 mg/kg (Table 14) p.o., MOR202 1 mg/kg i.v.) does the source give for `Nc1cccc2c1CN(C1CCC(=O)NC1=O)C2=O` (stereo not shown) [LEN, lenalidomide] here?
**A.** 0/7

**Q.** And the “Day of death (post-inoculation) Mean” value (RAMOS cells; LEN 100 mg/kg (Table 14) p.o., MOR202 1 mg/kg i.v. twice weekly, study 98 days)?
**A.** 21.4 days

**Q.** And the “% ILS (based on median death day)” value (RAMOS cells; LEN 100 mg/kg (Table 14) p.o., MOR202 1 mg/kg i.v., vs vehicle control)?
**A.** 10%

**Q.** And the “Day of death (post-inoculation) Median” value (RAMOS cells; LEN 100 mg/kg (Table 14; Table 13: 50 mg/kg) p.o. once daily, MOR202 1 mg/kg i.v. twice weekly, study 98 days)?
**A.** 22 days

**Q.** What about the “Normalized specific killing, fractional product combination set as 1 (Table 7b), Exp. 1” value (NCI-H929 cells [1]) of the same molecule?
**A.** 0.67

**Q.** What about the “Normalized specific killing, fractional product combination set as 1 (Table 8b), Exp. 1” value (NCI-H929 cells [1]) of the same molecule?
**A.** −0.10

**Q.** And the “Enhancement of MOR202 activity by LEN (in words)” value (NCI-H929 cells [2]; NCI-H929 cells, Fractional Product Concept and Chou et al., 6 out of 6 experiments each)?
**A.** synergistically enhanced MOR202 activity

**Q.** What about the “% dead cells (raw data, Table 7a), Exp. 2 and 3” value (NCI-H929 cells [2]; PBMCs and NCI-H929 cells treated with LEN before MOR202, LEN 5 μM, MOR202 0.07 μg/ml, MOR03207 15 μg/ml) of the same molecule?
**A.** 39.92 % dead cells and 41.92 % dead cells

**Q.** And the “% dead cells (raw data, Table 7a), Exp. 1” value (NCI-H929 cells [2]; PBMCs and NCI-H929 cells treated with LEN before MOR202, LEN 5 μM, MOR202 0.2 μg/ml (*), MOR03207 15 μg/ml)?
**A.** 38.65 % dead cells

**Q.** And the “Normalized specific killing, AVERAGE (Table 7b)” value (NCI-H929 cells [2]; PBMCs and NCI-H929 cells treated with LEN, LEN 5 μM, MOR202 0.2 or 0.07 μg/ml, average of 3 experiments)?
**A.** 0.63

**Q.** What about the “% dead cells (raw data, Table 8a), Exp. 2 and 3” value (NCI-H929 cells [2]; only effector cells treated with LEN before MOR202, LEN 5 μM, MOR202 0.07 μg/ml, MOR03207 15 μg/ml) of the same molecule?
**A.** 26.27 % dead cells and 25.72 % dead cells

**Q.** And the “% dead cells (raw data, Table 8a), Exp. 1” value (NCI-H929 cells [2]; only effector cells treated with LEN before MOR202, LEN 5 μM, MOR202 0.2 μg/ml (*), MOR03207 15 μg/ml)?
**A.** 17.50 % dead cells

**Q.** What about the “Normalized specific killing, AVERAGE (Table 8b)” value (NCI-H929 cells [2]; only effector cells treated with LEN, LEN 5 μM, MOR202 0.2 or 0.07 μg/ml, average of 3 experiments) of the same molecule?
**A.** 0.02
